This note sets out measurements from US11192852B2, “Pyrazolyl and pyrimidinyl tricyclic enones as antioxidant inflammation modulators” (REATA PHARMACEUTICALS, INC., priority 2010, dated 2021).

pIC50: −log10 of the molar value.

In this experiment the test system is IFNγ-induced NO production in RAW264.7 mouse macrophages. Nature of the experiment: Suppression of IFNγ-induced nitric oxide production (Griess reagent). The experiment is classed as cell-based. The following applies: 2 h pre-treatment (0-200 nM), then IFNγ 24 h, normalized to cell viability. From the text: Nitric Oxide Production and Cell Viability.
In general terms: Griess reagent forms a coloured azo dye with nitrite.

Where [1] appears, read: Mus musculus, RAW264.7, RAW264.7 cells.

What is called pIC50 is the negative decadic logarithm of the IC50, by convention in mol/L. Turning to `C[C@@H]1C(=O)C(C#N)=C[C@]2(C)c3nn(C)c(Br)c3CC[C@@H]12` [TX63606], the pIC50 under setting [1] is 7.96.
As to `CC(=O)n1nc2c(c1-c1ccccc1)CC[C@H]1C(C)(C)C(=O)C(C#N)=C[C@]21C` [TX63611], the pIC50 under setting [1] was 7.66.
On the same count and under the same terms, in the case of `CC1(C)C(=O)C(C#N)=C[C@]2(C)c3nc(-c4ccccc4Cl)ncc3CC[C@@H]12` [TX63612] it was 7.37; in that of `Cn1nc2c(c1C#N)CC[C@H]1C(C)(C)C(=O)C(C#N)=C[C@]21C` [TX63613], 7.00.
Same read-out and setting: in the case of `CC1(C)C(=O)C(C#N)=C[C@]2(C)c3c(cnc4c(Br)cnn34)CC[C@@H]12` [TX63615] it was 7.28.
Still for that read-out and setting: to `CC1(C)C(=O)C(C#N)=C[C@]2(C)c3nc4c(Br)cnn4cc3CC[C@@H]12` [TX63617] belongs 7.48.
Turning to `Cn1nc2c(c1C(N)=O)CC[C@H]1C(C)(C)C(=O)C(C#N)=C[C@]21C` [TX63619], the pIC50 under setting [1] is less than 6.70.
Turning to `Cc1noc(C)c1-c1c2c(nn1C)[C@@]1(C)C=C(C#N)C(=O)C(C)(C)[C@@H]1CC2` [TX63625], the pIC50 under setting [1] was 7.11.
Regarding `CC1(C)C(=O)C(C#N)=C[C@]2(C)c3c(cnc4c(-c5ccccc5)cnn34)CC[C@@H]12` [TX63626], the pIC50 under setting [1] is 7.42.
On the same count and under the same terms, in the case of `CC1(C)C(=O)C(C#N)=C[C@]2(C)c3c(cnc4ccnn34)CC[C@@H]12` [TX63627] it was 7.42; in that of `Cc1nc(-c2ncc3c(n2)[C@@]2(C)C=C(C#N)C(=O)C(C)(C)[C@@H]2CC3)cs1` [TX63628], 7.21.
Same read-out and setting: in the case of `Cn1nc2c(c1-c1ccccc1)CC[C@H]1[C@H](c3ccccc3)C(=O)C(C#N)=C[C@]21C` [TX63629] it was 6.86; in that of `CCOC(=O)c1c2c(nn1C)[C@@]1(C)C=C(C#N)C(=O)C(C)(C)[C@@H]1CC2` [TX63630], 7.42.
Same read-out and setting: to `Cn1nc2c(c1C(=O)O)CC[C@H]1C(C)(C)C(=O)C(C#N)=C[C@]21C` [TX63631] belongs less than 6.70; to `CC1(C)C(=O)C(C#N)=C[C@]2(C)c3nc(-c4ccncc4)ncc3CC[C@@H]12` [TX63636], 7.57.
Regarding `Cc1c2c(nn1C)[C@@]1(C)C=C(C#N)C(=O)C(C)(C)[C@@H]1CC2` [TX63637], under setting [1], the pIC50 was 7.35.
Same read-out and setting: to `CC1(C)C(=O)C(C#N)=C[C@]2(C)c3nc(-c4ccccn4)ncc3CC[C@@H]12` [TX63641] belongs 7.37; to `CC1(C)C(=O)C(C#N)=C[C@]2(C)c3nn(C(=O)c4ccccc4)cc3CC[C@@H]12` [TX63642], 6.83.
Same read-out and setting: to `COc1nc(C)nc2c1CC[C@H]1[C@H](C)C(=O)C(C#N)=C[C@]21C` [TX63646] belongs 8.07; to `C[C@@H]1C(=O)C(C#N)=C[C@]2(C)c3c(c(Br)nn3C)CC[C@@H]12` [TX63649], 7.68.
Still for that read-out and setting: in the case of `Cc1cccc(-c2c3c(nn2C)[C@@]2(C)C=C(C#N)C(=O)[C@@H](C)[C@@H]2CC3)c1` [TX63650] it was 8.21; in that of `C#Cc1c2c(nn1C)[C@@]1(C)C=C(C#N)C(=O)C(C)(C)[C@@H]1CC2` [TX63651], 7.64; in that of `C[C@@H]1C(=O)C(C#N)=C[C@]2(C)c3nn(C)c(C(=O)N(C)C)c3CC[C@@H]12` [TX63655], less than 6.70.
Consider `CC1=C2CCc3c(nn(C)c3-c3cccc(C)c3)[C@@]2(C)C=C(C#N)C1=O` [TX63656], for which the pIC50 under setting [1] is less than 6.70.
Still for that read-out and setting: to `C[C@@H]1C(=O)C(C#N)=C[C@]2(C)c3nn(C)c(-c4cccc(F)c4)c3CC[C@@H]12` [TX63659] belongs 8.09; to `CC1=C2CCc3c(nn(C)c3-c3cccc(F)c3)[C@@]2(C)C=C(C#N)C1=O` [TX63663], 6.97; to `COc1cccc(-c2c3c(nn2C)[C@@]2(C)C=C(C#N)C(=O)[C@@H](C)[C@@H]2CC3)c1` [TX63664], 8.10.
Same read-out and setting: to `Cn1nnc(-c2c3c(nn2C)[C@@]2(C)C=C(C#N)C(=O)C(C)(C)[C@@H]2CC3)n1` [TX63665] belongs 7.85; to `C[C@@H]1C(=O)C(C#N)=C[C@]2(C)c3nc(-c4ccccc4)n(C)c(=O)c3CC[C@@H]12` [TX63666], 7.60; to `Cn1nc2c(c1C(=O)c1ccccc1)CC[C@H]1C(C)(C)C(=O)C(C#N)=C[C@]21C` [TX63667], 6.81.
The same measure, in the same setting: in the case of `Cn1[nH]c2c(c1=O)CC[C@H]1C(C)(C)C(=O)C(C#N)=C[C@]21C` [TX63676] it was less than 6.70.
Take `C[C@@H]1C(=O)C(C#N)=C[C@]2(C)c3nn(C)c(-c4cnn(C)c4)c3CC[C@@H]12` [TX63690]: under setting [1], the pIC50 is 7.96.
On the same count and under the same terms, to `COc1c2c(nn1C)[C@@]1(C)C=C(C#N)C(=O)C(C)(C)[C@@H]1CC2` [TX63691] belongs 7.21; to `CN1N=C2C(C)(CC[C@H]3C(C)(C)C(=O)C(C#N)=C[C@]23C)C1=O` (stereo partly drawn) [TX63692], less than 6.70.
Turning to `Cn1cnc(-c2c3c(nn2C)[C@@]2(C)C=C(C#N)C(=O)C(C)(C)[C@@H]2CC3)n1` [TX63714], the pIC50 under setting [1] is less than 6.70.
On to `COc1nc(OC)c2c(n1)[C@@]1(C)C=C(C#N)C(=O)[C@@H](C)[C@@H]1CC2` [TX63718], for which the pIC50 (RAW264.7 cells) was 8.22.
For `C[C@@H]1C(=O)C(C#N)=C[C@]2(C)c3nn(C)c(-c4nnn(C)n4)c3CC[C@@H]12` [TX63719], the pIC50 under setting [1] was 8.23.
On the same count and under the same terms, in the case of `C[C@@H]1C(=O)C(C#N)=C[C@]2(C)c3nn(C)c(-c4ccncc4)c3CC[C@@H]12` [TX63720] it was 8.31; in that of `C[C@@H]1C(=O)C(C#N)=C[C@]2(C)c3nn(C)c(-c4ccccc4F)c3CC[C@@H]12` [TX63721], 8.11; in that of `C[C@@H]1C(=O)C(C#N)=C[C@]2(C)c3nn(C)c(-c4cccnc4)c3CC[C@@H]12` [TX63722], 8.08.
On the same count and under the same terms, in the case of `Cc1nc(-c2c3c(nn2C)[C@@]2(C)C=C(C#N)C(=O)C(C)(C)[C@@H]2CC3)no1` [TX63723] it was 7.46; in that of `C[C@@H]1C(=O)C(C#N)=C[C@]2(C)c3nn(C)c(C#N)c3CC[C@@H]12` [TX63725], 7.62.
On the same count and under the same terms, to `COc1ccccc1-c1nc(OC)c2c(n1)[C@@]1(C)C=C(C#N)C(=O)[C@@H](C)[C@@H]1CC2` [TX63727] belongs 7.94.
As to `COc1nc(-c2ccncc2)nc2c1CC[C@H]1[C@H](C)C(=O)C(C#N)=C[C@]21C` [TX63728], the pIC50 under setting [1] was 8.17.
On the same count and under the same terms, to `Cn1nc2c(c1-c1nnn(Cc3ccccc3)n1)CC[C@H]1C(C)(C)C(=O)C(C#N)=C[C@]21C` [TX63729] belongs 7.54; to `CCOC(=O)c1nc(OC)c2c(n1)[C@@]1(C)C=C(C#N)C(=O)[C@@H](C)[C@@H]1CC2` [TX63730], 7.80.
On the same count and under the same terms, in the case of `CCOc1nc(-c2ccccc2)nc2c1CC[C@H]1[C@H](C)C(=O)C(C#N)=C[C@]21C` [TX63731] it was 7.49; in that of `CC(C)n1nnc(-c2c3c(nn2C)[C@@]2(C)C=C(C#N)C(=O)C(C)(C)[C@@H]2CC3)n1` [TX63734], 7.37.
Still for that read-out and setting: in the case of `Cc1nnc(-c2c3c(nn2C)[C@@]2(C)C=C(C#N)C(=O)C(C)(C)[C@@H]2CC3)o1` [TX63735] it was 7.81.
As for `CCOc1nc(OCC)c2c(n1)[C@@]1(C)C=C(C#N)C(=O)[C@@H](C)[C@@H]1CC2` [TX63736], the pIC50 under setting [1] was 8.01.
On the same count and under the same terms, in the case of `C[C@@H]1C(=O)C(C#N)=C[C@]2(C)c3nn(C)c(-c4cncnc4)c3CC[C@@H]12` [TX63748] it was 7.64.
Same read-out and setting: to `COc1nc(-c2cncnc2)nc2c1CC[C@H]1[C@H](C)C(=O)C(C#N)=C[C@]21C` [TX63757] belongs 8.37.
For `Cc1nc(N2CCOCC2)c2c(n1)[C@@]1(C)C=C(C#N)C(=O)[C@@H](C)[C@@H]1CC2` [TX63758], the pIC50 under setting [1] was 7.26.
On to `Cc1noc(-c2c3c(nn2C)[C@@]2(C)C=C(C#N)C(=O)C(C)(C)[C@@H]2CC3)n1` [TX63760], for which the pIC50 under setting [1] is 8.21.
On the same count and under the same terms, to `COc1nc(C2CC2)nc2c1CC[C@H]1[C@H](C)C(=O)C(C#N)=C[C@]21C` [TX63761] belongs 8.05.
Same read-out and setting: in the case of `CCOc1nc(C)nc2c1CC[C@H]1[C@H](C)C(=O)C(C#N)=C[C@]21C` [TX63773] it was 8.22; in that of `Cc1nc(N(C)C)c2c(n1)[C@@]1(C)C=C(C#N)C(=O)[C@@H](C)[C@@H]1CC2` [TX63774], 7.57; in that of `C[C@@H]1C(=O)C(C#N)=C[C@]2(C)c3nn(C)c(N4C(=O)NC(C)(C)C4=O)c3CC[C@@H]12` [TX63776], less than 6.70.
Same read-out and setting: to `C[C@@H]1C(=O)C(C#N)=C[C@]2(C)c3nn(C)c(-c4ccccc4)c3CC[C@@H]12` [TX63791] belongs 8.64; to `C[C@H]1C(=O)C(C#N)=C[C@@]2(C)c3nn(C)c(-c4ccccc4)c3CC[C@H]12` [TX63792], 6.83.
Turning to `COc1nc(OC)c2c(n1)[C@@]1(C)C=C(C#N)C(=O)[C@@H](C)[C@@H]1CC2` [TX63793], the pIC50 (RAW264.7 cells) was 8.60.
With `COc1nc(OC)c2c(n1)[C@]1(C)C=C(C#N)C(=O)[C@H](C)[C@H]1CC2` [TX63794], the pIC50 under setting [1] was 7.05.
On the same count and under the same terms, in the case of `Cn1nc2c(c1-c1ccccc1)CC[C@H]1C(C)(C)C(=O)C(C(F)(F)F)=C[C@]21C` [TX63803] it was 7.30; in that of `Cn1nc2c(c1-c1ccccc1)C(=O)C[C@H]1C(C)(C)C(=O)C=C[C@]21C` [TX63804], less than 6.70; in that of `CCCCNc1nc(C)nc2c1CC[C@H]1[C@H](C)C(=O)C(C#N)=C[C@]21C` [TX63827], 7.23.
Still for that read-out and setting: in the case of `C[C@@H]1C(=O)C(C(F)(F)F)=C[C@]2(C)c3nn(C)c(-c4ccccc4)c3CC[C@@H]12` [TX63829] it was 7.66; in that of `Cn1nc2c(c1-c1ccccc1)CC[C@H]1C(C)(C)C(=O)[C@]3(C#N)O[C@@H]3[C@]21C` [TX63834], 6.98.
The same measure, in the same setting: in the case of `C[C@@H]1C(=O)C(C#N)=C[C@]2(C)c3n[nH]c(-c4ccccc4)c3CC[C@@H]12` [TX63836] it was 8.21; in that of `C[C@@H]1C(=O)[C@]2(C#N)O[C@@H]2[C@]2(C)c3nn(C)c(-c4ccccc4)c3CC[C@@H]12` [TX63848], 8.02.
